Test results published in patent US20070128217A1 (priority 2003, published 2007).

What was measured:
[1] = tested on: rabbit serum obtained by immunizing a rabbit with the SARS-CoV strain Frankfurt 1; assay type: binding; set-up: Binding of a rabbit serum to linear peptides / Binding of a rabbit serum to looped peptides / Rabbit serum linear peptides / Rabbit serum looped peptides / Binding of a rabbit serum to linear peptides of protein N of SARS-CoV Urbani (Rabbit serum linear peptides) / Binding of a rabbit serum to looped/cyclic peptides of protein N of SARS-CoV Urbani (Rabbit serum looped peptides): unit not given here
[2] = tested on: control sera (pooled serum of ten healthy LUMC hospital workers; commercial negative donor pooled serum from the Dutch bloodbank); assay type: binding, human; set-up: Binding of Control serum LUMC to linear peptides / Binding of Control serum Blood-bank to linear peptides / Binding of Control serum LUMC to looped peptides / Binding of Control Serum Blood-Bank to Looped peptides / Binding of Control serum LUMC to linear peptides of the protein M of SARS-CoV Urbani / Binding of Control serum Blood-bank to linear peptides of the protein M of SARS-CoV Urbani / Binding of Control serum LUMC to looped peptides of the protein M of SARS-CoV Urbani / Binding of Control Serum Blood-Bank to Looped peptides of the protein M of SARS-CoV Urbani: unit not given here
[3] = tested on: antibodies in sera from SARS patients (sera 1a, 1b, 2, 6, 37, 62, London, SARS-yellow, SARS-green); assay type: binding, human; set-up: Binding of serum 6 to linear peptides of protein X1 of SARS-CoV Urbani / Binding of serum 37 to linear peptides of protein X1 of SARS-CoV Urbani / Binding of serum 6 to looped/cyclic peptide (PEPSCAN-ELISA) / Binding of serum 37 to looped/cyclic peptide (PEPSCAN-ELISA) / Binding of serum 37 to looped/cyclic peptides of protein X1 of SARS-CoV Urbani / Binding of serum 6 to linear peptides of protein X2 / Binding of serum 37 to linear peptides of protein X2 / Binding of serum 37 to looped/cyclic peptides of protein X2 of SARS-CoV Urbani / Binding of serum 6 to linear peptides of protein M of SARS-CoV Urbani / Binding of serum 37 to linear peptides of protein M of SARS-CoV Urbani / Binding of serum 6 to looped/cyclic peptides of protein M of SARS-CoV Urbani / Binding of serum 37 to looped/cyclic peptides of protein M of SARS-CoV Urbani / Binding of serum 6 to linear peptides of protein X3 of SARS-CoV Urbani / Binding of serum 37 to linear peptides of protein X3 of SARS-CoV Urbani / Binding of serum 37 to looped/cyclic peptides of protein X3 of SARS-CoV Urbani / Binding of serum 6 to linear peptides of protein X4 of SARS-CoV Urbani / Binding of serum 37 to linear peptides of protein X4 of SARS-CoV Urbani / Binding of serum 37 to looped/cyclic peptides of protein X4 of SARS-CoV Urbani / Binding of serum 6 to linear peptides of protein X5 of SARS-CoV Urbani / Binding of serum 37 to linear peptides of protein X5 of SARS-CoV Urbani / Binding of serum 37 to looped/cyclic peptides of protein X5 of SARS-CoV Urbani / Binding of serum 6 to linear peptides of protein N of SARS-CoV Urbani / Binding of serum 37 to linear peptides of protein N of SARS-CoV Urbani / Binding of serum 6 to linear peptide (PEPSCAN-ELISA) / Binding of serum 1a to looped/cyclic peptides of protein N of SARS-CoV Urbani / Binding of serum 1b to looped/cyclic peptides of protein N of SARS-CoV Urbani / Binding of serum 2 to looped/cyclic peptides of protein N of SARS-CoV Urbani / Binding of serum 6 to looped/cyclic peptides of protein N of SARS-CoV Urbani / Binding of serum 37 to looped/cyclic peptides of protein N of SARS-CoV Urbani / Binding of serum 62 to looped/cyclic peptides of protein N of SARS-CoV Urbani / Binding of serum London to looped/cyclic peptides of protein N of SARS-CoV Urbani / Binding of serum SARS-green to looped/cyclic peptides of protein N of SARS-CoV Urbani: unit not given here
[4] = tested on: recombinant human anti-SARS-CoV antibody 03-018; assay type: binding; set-up: Binding of antibody 03-018 to linear peptides of the N protein of SARS-CoV Urbani / Binding of antibody 03-018 to looped/cyclic peptides of the N protein of SARS-CoV Urbani: unit not given here

Sequence | Binding of a rabbit serum to linear peptides of protein N of SARS-CoV Urbani (Rabbit serum linear peptides) [1] | Binding of a rabbit serum to looped/cyclic peptides of protein N of SARS-CoV Urbani (Rabbit serum looped peptides) [1] | Binding of serum 1a to linear peptides of protein N of SARS-CoV Urbani [3] | Binding of serum 1a to looped/cyclic peptides of protein N of SARS-CoV Urbani [3] | Binding of serum 1b to linear peptides of protein N of SARS-CoV Urbani [3] | Binding of serum 1b to looped/cyclic peptides of protein N of SARS-CoV Urbani [3] | Binding of serum 2 to linear peptides of protein N of SARS-CoV Urbani [3] | Binding of serum 2 to looped/cyclic peptides of protein N of SARS-CoV Urbani [3] | Binding of serum 6 to linear peptides of protein N of SARS-CoV Urbani [3] | Binding of serum 6 to looped/cyclic peptides of protein N of SARS-CoV Urbani [3] | Binding of serum 37 to linear peptides of protein N of SARS-CoV Urbani [3] | Binding of serum 37 to looped/cyclic peptides of protein N of SARS-CoV Urbani [3] | Binding of serum 62 to linear peptides of protein N of SARS-CoV Urbani [3] | Binding of serum 62 to looped/cyclic peptides of protein N of SARS-CoV Urbani [3] | Binding of serum London to linear peptides of protein N of SARS-CoV Urbani [3] | Binding of serum London to looped/cyclic peptides of protein N of SARS-CoV Urbani [3] | Binding of serum SARS-green to linear peptides of protein N of SARS-CoV Urbani [3] | Binding of serum SARS-green to looped/cyclic peptides of protein N of SARS-CoV Urbani [3] | Binding of serum SARS-yellow to linear peptides of protein N of SARS-CoV Urbani [3] | Binding of serum SARS-yellow to looped/cyclic peptides of protein N of SARS-CoV Urbani [3] | further results
LTYHGAIKLDDKDPQ | 0.1 | 0.5 | 0.2 | 0.3 | 0.1 | 0.1 | 0.2 | 0.3 | 0.2 | 0.1 | 0.6 | 0.5 | 1.0 | 0.3 | 0.5 | 0.4 | 0.2 | 0.1 | 0.7 | 0.4 | Control Serum Blood-Bank Looped peptides [2]: 0.5; Control serum Blood-bank linear peptides [2]: 0.7; Control serum LUMC linear peptides [2]: 0.6; Control serum LUMC looped peptides [2]: 0.5; Binding of antibody 03-018 to linear peptides of the N protein of SARS-CoV Urbani [4]: 0.1; Binding of antibody 03-018 to looped/cyclic peptides of the N protein of SARS-CoV Urbani [4]: 0.2
MEVTPSGTWLTYHGA | 0.1 | 0.4 | 0.3 | 0.4 | 0.1 | 0.3 | 0.1 | 0.5 | 0.2 | 0.3 | 0.6 | 0.7 | 0.5 | 0.8 | 0.5 | 0.5 | 0.2 | 0.5 | 0.7 | 0.4 | Control Serum Blood-Bank Looped peptides [2]: 0.7; Control serum Blood-bank linear peptides [2]: 0.8; Control serum LUMC linear peptides [2]: 0.6; Control serum LUMC looped peptides [2]: 0.8; Binding of antibody 03-018 to linear peptides of the N protein of SARS-CoV Urbani [4]: 0.1; Binding of antibody 03-018 to looped/cyclic peptides of the N protein of SARS-CoV Urbani [4]: 0.2
MKELSPRWYFYYLGT | 0.1 | 0.4 | 0.2 | 0.4 | 0.1 | 0.2 | 0.1 | 0.4 | 0.1 | 0.2 | 0.5 | 0.7 | 0.4 | 0.6 | 0.4 | 0.4 | 0.2 | 0.4 | 0.6 | 0.4 | Binding of Control Serum Blood-Bank to Looped peptides [2]: 0.7; Binding of Control serum Blood-bank to linear peptides [2]: 0.7; Binding of Control serum LUMC to linear peptides [2]: 0.6; Binding of Control serum LUMC to looped peptides [2]: 0.6; Binding of antibody 03-018 to linear peptides of the N protein of SARS-CoV Urbani [4]: 0.1; Binding of antibody 03-018 to looped/cyclic peptides of the N protein of SARS-CoV Urbani [4]: 0.2
